Results as given in US8871789B2, “Method of preventing or treating viral infection” (The United States of America, as represented by the …, priority 2010, dated 2014).

How the values were obtained:
HSV-1 [1] = experiment: HSV-1 lytic viral yields from HFF cells; type: cell-based; design: reduction of viral yields: dose or concentration left out as unconfirmed; details: HFF cells, HSV-1 0.1 PFU per cell, 24 hours; FIG. 14
Experimental: FIG. 14 is a bar graph showing viral yields from HFF cells treated with DMSO or ML324 for 3 hours and infected with HSV-1 (0.1 PFUper cell) for 24 hours in the presence of the drugs. *P<0.004, one-way ANOVA with Dunnett's post hoc test. Data are means±SEM.
HSV-1 lytic viral yields decrease in the presence of DMOG (FIG. 10). HFF cells were pretreated with DMSO control or JMJD2 inhibitor DMOG for 5 hrs and infected with 0.1 pfu/cell of HSV-1 for 24 hrs in the presence of DMSO or DMOG. The yield of infectious virus derived from each treatment were determined by tittering on Vero cells according to standard procedures.

HSV-1 [2] = experiment: MRC-5 cells, ML324 added at times relative to HSV-1 infection; type: cell-based; details: added at 2 hours after infection; HSV-1 1.0 MOI; FIG. 17
Experimental: FIG. 17 is a line graph showing MRC-5 cells that were treated with DMSO or ML324 at the indicated time relative to infection with HSV-1 (1.0 MOI). Viral and cellular mRNA levels were determined at 4 hours after infection. Data are means±SEM.

HSV-1 [3] = type: cell-based, Balb/c mice; design: reduction of viral reactivation (viral yield): unit of the concentration uncertain
Experimental: FIG. 18 is a dot plot showing latently infected ganglia that were explanted in the presence of DMSO, ACV (100 mM), or ML324 (50 mM) for 48 hrs. Viral yields were determined from one half of each ganglia at 48 hrs (DMSO, ACV, ML324) and from the other half of each ganglia after drug reversal for an additional 72 hrs (ACV-R, ML324-R) [Wilcoxon matched pairs signed rank test, ACV vs ACV-R n=8, ML324 vs ML324-R n=10]. Data are means±SEM.
FIG. 19 is a dot plot showing viral yields from HSV-1 latently infected trigeminal ganglia that were explanted in the presence of DMSO, or 2 mM DMOG or 50 mM ML324 for 48 hours (DMSO versus DMOG: P=0.0015, Wilcoxon matched-pairs signed rank test; n=12; DMSO versus ML324: P<0.0001; n=20). Data are means±SEM.
Viral yields decrease from HSV-1 latently infected ganglia explanted in the presence of LSD1 or JMJD2 inhibitors (FIG. 11). Balb/c mice were infected with 5×10^6 PFU HSV-1 (strain F) per eye after corneal scarification. Latently infected mice were sacrificed 45 days post clearance of the primary infection and trigeminal ganglia were rapidly explanted into culture in the presence of 2 mM DMOG, 2 mM TCP, or control (DMSO or ACV, acyclovir) for 48 hours. Post explant incubation, the ganglia were homogenized and briefly sonicated. The reactivated viral yield of each ganglia was determined by titering the clarified supernatant on Vero cells. Statistical comparisons were made using Wilcoxon signed rank test (paired ganglia) with a statistical significance of <0.05. Each data point was the result of a single ganglia divided and treated in the presence and absence of DMSO and DMOG or DMSO and TCP. Therefore, a Wilcoxon signed rank test was used to assess differences between each treated and untreated sample. The significant difference between DMSO control and DMOG was p=0.0018. This test used an exact p-value for small sample sizes with an a level of 0.05. n=20. Analyses were made using Prism (V5.0a) and are expressed as the mean+/−s.e.m.

HSV-1 [4] = type: cell-based, mouse
Experimental: FIG. 20 is a dot plot showing latently infected trigeminal ganglia that were explanted in the presence of DMSO, 100 mM ACV, or 50 mM ML324 for 48 hours. The total number of UL29+ neurons per ganglia is graphed, representing the number of neurons undergoing viral reactivation. Data are means±SEM.

HSV-1 [5] = experiment: MRC-5 cells infected with HSV-1 at high MOI (IE mRNA, viral yields); type: cell-based
Experimental: FIG. 15 is a bar graph showing MRC-5 cells treated with DMSO or 50 mM ML324 that were infected with HSV-1 at the indicated multiplicity of infection (MOI). Viral IE and cellular mRNA levels were quantitated at 2 hours after infection. *P<0.0001, two-way ANOVA with Tukey's post hoc test. Data are means±SEM.
FIG. 16 is a bar graph showing MRC-5 cells treated with DMSO or 50 mM ML324 that were infected with HSV-1 at the indicated MOI. Viral yields were determined at 24 hours after infection. *P<0.0001, two-way ANOVA with Tukey's post hoc test. Data are means±SEM.

HSV-1 [6] = experiment: HSV-1 IE mRNA levels in infected HFF cells; type: cell-based
Experimental: FIG. 13 is a line graph showing viral IE (ICP4, ICP27, and ICP22) and control (S15, Sp1, and TBP) mRNA levels in HFF cells treated with DMSO or the indicated concentrations of ML324 for 3 hours and infected with HSV-1 (0.1 PFU per cell) for 3 hours. *P<0.0001, two-way ANOVA with Tukey's post hoc test. Data are means±SEM.
HSV-1 IE mRNA levels of ICP4 and ICP27 decrease in cells infected in the presence of DMOG. Human foreskin fibroblast (HFF) cells were infected with HSV-1 at 0.1 PFU/cell for 3 hrs in the presence of increasing concentrations of DMOG. Cells were harvested and the levels of viral IE (ICP4, ICP27) and cell control (s15) mRNAs were assessed by qRT-PCR.
All experiments were performed as described in Liang et al., Sci. Transl. Med. 5, 167ra5 (2013). N-(3-(dimethylamino)propyl)-4-(8-hydroxyquinolin-6-yl)benzamide (designated ML324) has the following characteristics: N-(3-(dimethylamino)propyl)-4-(8-hydroxyquinolin-6-yl)benzamide (1). LC-MS: rt (min)=3.033; ^1H NMR (400 MHz, DMSO-d6) δ 1.84-1.98 (m, 2H), 2.79 (s, 3H), 2.80 (s, 3H), 3.12 (ddd, J=10.2 Hz, 5.4 Hz and 5.2 Hz, 2H), 3.37 (q, 2H), 7.50 (s, 1H), 7.66 (dd, J=8.2 Hz and 4.3 Hz, 1H), 7.84 (s, 1H), 7.88-7.94 (m, 2H), 7.96-8.02 (m, 2H), 8.50 (d, J=8.2 Hz, 1H), 8.71 (t, J=5.6 Hz, 1H), 8.90 (d, J=4.1 Hz, 1H), 9.34 (brs, 1H); HRMS (ESI) m/z (M+H)^+ C21H24N3O2, 350.1867. found 350.1863.

[7] = 100 mM ACV or 50 mM ML324, 48 hours

CN(C)CCCNC(=O)c1ccc(-c2cc(O)c3ncccc3c2)cc1 [Compound 4, N-(3-(dimethylamino)propyl)-4-(8-hydroxyquinolin-6-yl)benzamide]
reduction of viral yields (HSV-1 [1]): ~5 logs | reduction of IE gene transcription when added after infection (HSV-1 [2]): > 50% | reduction of viral reactivation (viral yield) (HSV-1 [3]; 50 (unit uncertain), 48 hours explant, FIG. 19): 4.5 log | viral replication in ganglia after drug withdrawal (HSV-1 [3]; after ML324 withdrawal, additional 72 hrs, FIG. 18): robust viral replication | primary viral reactivation events (HSV-1 [4]; 50 mM ML324, 48 hours, FIG. 20): suppressed | UL29+ cell clusters (HSV-1 [4]; [7]): 2 clusters in 48 ganglia sections | isolated UL29+ neurons relative to DMSO (HSV-1 [4]; [7]): most significant reduction | viral IE gene transcription at high multiplicity of infection (HSV-1 [5]; 50 mM ML324, 2 hours after infection, FIG. 15): blocked | viral yields at high multiplicity of infection (HSV-1 [5]; 50 mM ML324, 24 hours after infection, FIG. 16): reduced | IC50 (HSV-1 [6]; Human alphaherpesvirus 1, HFF, 3 h, read-out: IC50 for reducing IE gene expression): ~10 µM | efficiency relative to DMOG in reducing IE gene expression (HSV-1 [6]; ML324 versus DMOG): ~75 fold
